In patent US20160272709A1, “ANTI-KIR ANTIBODIES” (The Regents of the University of Michigan, priority 2015, published 2016):

Legend:
[1] = system: CD4^+KIR^+NK1.1^− cells; experiment: Flow cytometry (6G10) of KIR on CD4+ splenocytes of tet-on dnMEK transgenic mice receiving dox; assay type: in vivo
Description: FIGS. 3A-B.) Double transgenic mice were given Dox (B) or not (A) in their drinking water, then KirL1 expression was measured on CD4+ splenocytes by flow cytometry.
(§1) To test if the mouse T cell KIR genes are also activated by DNA methylation inhibition, murine splenocytes were stimulated with ConA, treated with 5-azaC, and KIRL1 mRNA measured relative to GAPDH by RT-PCR in CD4+ T cells bead purified by negative selection to remove NK and other non-CD4+ T cells.

[2] = system: CD4^+KIRL1^+CD11a^hiCD40L^+ subset; experiment: Multicolor flow cytometry of splenocytes of SJL mice given dox for 6 weeks; assay type: in vivo; details: dox 6 weeks; controls 0.007%
From the text: SJL mice were given dox for 6 weeks, sacrificed, then splenocytes stained with Pacific Blue-CD3; FITC-CD8; PE-CD40L; PE-Cy5-CD4; Avidin-APC-Cy7/biotin-KIRL1; PERCP-Cy5.5-CD11a. Mice receiving dox developed a CD4^+KIRL1^+CD11a^hiCD40L^+ subset that resembles the human lupus subset shown in FIG. 1, and represented 1.09% of the total CD11a+ cells, while controls had only 0.007% CD4^+KIRL1^+CD11a^hiCD40L^+ cells.

[3] = lupus patients; cited from earlier work
[4] = system: CD4^+KIR^+NK1.1^− cells; experiment: Flow cytometry (6G10) of KIR on murine T cells treated with 5-azaC; assay type: cell-based
[5] = system: KIRL1 mRNA; experiment: KIRL1 mRNA relative to GAPDH by RT-PCR in CD4+ T cells from 5-azaC treated splenocytes; assay type: cell-based, murine; details: ConA-stimulated splenocytes, n=4, p=0.038
Description: FIGS. 2A-B. (A) Murine splenocytes were stimulated with […], treated or not with 5-azaC, then KirL1 mRNA was measured in CD4^+ T cells relative to GAPDH by RT-PCR. (B) Double transgenic mice were given Dox or not in their drinking water, then KirL1 mRNA measured in CD4+ splenocytes as in panel A.
as §1

[6] = system: CD3^+CD4^+CD28^+ T cells; experiment: KIR and CD11a expression on PHA-stimulated, 5-azaC treated PBMC (flow cytometry); assay type: cell-based, human
Description: FIGS. 11A-D. 5-Azacytidine treatment of PHA-stimulated PBMC induces the expression of KIR proteins on a subset of CD4^+CD28^+CD11a^hi T cells. PBMC were stimulated for 18-24 hrs with PHA followed by treatment with 2.5 μM 5-azacytidine or saline for 72 hrs. The cells were then stained with fluorochrome-conjugated antibodies to methylation-sensitive gene products, fixed and analyzed by flow cytometry as described in Methods. Gating was established to select CD3^+CD4^+CD28^+ T cells. The CD3^+CD4^+CD28^+ T cells were then analyzed for CD11a and KIR using a cocktail of 5 PE-conjugated anti-KIR antibodies and imaged on a FACS Synergy flow cytometer. (A), Untreated T cells. (B), 5-azaC treated T cells. (C), 5-azaC treated PBMC stained only with the cocktail of anti-KIR antibodies. (D), 5-azaC treated T cells stained with antibodies to CD3, CD4, CD28, CD11a, CD70 and CD40L but not KIR. The figure shown is representative of 9 separate cultures.
The expression of methylation-sensitive genes was analyzed in 5-azaC treated cells from healthy women. PBMCs from a healthy […] were stimulated with PHA then cultured with or without 5-azaC. Seventy-two hours later the cells were washed, stained with fluorochromeconjugated antibodies to CD3, CD4, CD28, CD11a, CD70 and CD40L with and without a “cocktail” of PE conjugated antibodies to 5 distinct KIR proteins then analyzed by flow cytometry as outlined in FIG. 10. […]
In the absence of treatment with the demethylating agent 5-azaC very few KIR+ cells were observed (FIG. 11A). […] Further, CD11a expression on the majority (>70%) of the KIR^+CD3^+CD4^+CD28^+ cells treated with 5-azaC (FIG. 11B, rectangle) was nearly twice that of the corresponding KIR− T cells (FIG. 11B, circle) from the same cultures (median fluorescence intensity 2298+/−748 SD, versus 1394+/−572, respectively, n=9 analyzed in 7 different experiments, p<0.001). […]

In the case of C[C@H]1c2cccc(O)c2C(=O)C2=C(O)[C@]3(O)C(=O)C(C(N)=O)=C(O)[C@@H](N(C)C)[C@@H]3[C@@H](O)[C@@H]21 [dox, doxycycline], the “KIR expression, % of total CD4+ T cells” value ([1]; tet-on mouse with higher KIR expression, FIGS. 3A-B) is reported as 3.9%, the “increase in CD4^+KIR^+NK1.1^− cells” value ([1]; transgenic mice receiving dox) is reported as 5.7 fold and the “CD4^+KIRL1^+CD11a^hiCD40L^+ subset, % of total CD11a+ cells” value [2] is reported as 1.09%.

In the case of CC(=O)N[C@@H](CS)C(=O)O [N-acetylcysteine], the flare severity [3] is listed as “decreases flare severity”.

With Nc1ncn([C@@H]2O[C@H](CO)[C@@H](O)[C@H]2O)c(=O)n1 [5-azaC, 5-azacytidine] the “increase in CD4^+KIR^+NK1.1^− cells” value [4] was 3.1 fold, the “KIRL1 mRNA relative to GAPDH” value [5] was “overexpressed KIRL1 mRNA” and the “numbers of KIR+ cells” value ([6]; 2.5 μM 5-azaC 72 hrs after PHA) was “increases the numbers of KIR+ cells”. For the same molecule, the “CD11a median fluorescence intensity on KIR^+CD3^+CD4^+CD28^+ cells” value ([6]; 5-azaC treated cultures, SD, n=9, p<0.001 vs KIR− cells) was 2298+/−748 and the “CD11a median fluorescence intensity on corresponding KIR− T cells” value ([6]; same 5-azaC treated cultures, SD, n=9) was 1394+/−572.
